Laboratory results: patent publication US7108865B2, “Controlled-release dosage forms of azithromycin” (Pfizer Inc, priority 1994, dated 2006)

Experiments:
[1] = 3,995 patients, all dose levels combined, cited from earlier work
[2] = Visual Analogue Scale gastrointestinal side effects after duodenal or ileocecal dosing (Example 2); type: in vivo, human; conditions: for Incidence of Visual-Analogue-Scale score >1, abdominal cramping / Incidence of Visual-Analogue-Scale score >1, abdominal pain / Incidence of Visual-Analogue-Scale score >1, nausea / Incidence of Visual-Analogue-Scale score >1, regurgitation / Incidence of Visual-Analogue-Scale score >4, abdominal cramping / Incidence of Visual-Analogue-Scale score >4, abdominal pain / Incidence of Visual-Analogue-Scale score >4, nausea / Incidence of Visual-Analogue-Scale score >4, regurgitation: any time during 96 hour post-dose, subjects reporting/total; for Mean Cumulative Score (Visual Analogue Scale), abdominal cramping / Mean Cumulative Score (Visual Analogue Scale), abdominal pain / Mean Cumulative Score (Visual Analogue Scale), nausea / Mean Cumulative Score (Visual Analogue Scale), regurgitation: entire 96 hour post-dose period
Procedure: Healthy male subjects were divided into two groups. […] All subjects were dosed after an overnight fast.
Prior to dosing and each blood sampling time, each subject filled out a questionnaire, which consisted of a series of “Visual Analogue Scales” in which the subject was required to rate, on a scale of 0–10, the severity of certain potential side effects. The subjects were instructed that “0” indicated an absent effect and “10” indicated the worst possible effect. The subjects were instructed to interpolate between 0 and 10 for moderate side effects.
Analysis of side effect visual-analogue-scale data was carried out in two formats. In the first format (Table V), the analysis concentrated on the general incidence of side effects of a particular type. For each side effect type (e.g., abdominal pain), Table V reports the number of subjects who reported a score >1 at any time during the 96 hr post-dosing, and the number of subjects who reported a score >4 at any time during the 96 hr post-dosing. This analysis assumes that all scores >1 represent a real side effect occurrence, however mild or severe. A score >4 is presumed to reflect a moderate-to-severe side effect occurrence.
In the second format (Table VI), the analysis reflects the general severity and duration of side effects. For a particular side effect (e.g., Abdominal Pain) in a particular subject, all visual-analogue-scale scores (over the 96 hr post-dose period) were summed to give a “cumulative score” over the entire time period of evaluation. “Cumulative scores” for all members of a treatment group were summed, and divided by the number of subjects in the group, to give a Mean Cumulative Score. […] Table VI presents Mean Cumulative Scores for abdominal pain, nausea, regurgitation, and abdominal cramping.

clinical = conditions: male, human, in vivo
Excerpt: Healthy male subjects were divided into two groups. Group A received a 2 g azithromycin dose administered directly into the duodenum as a solution via a nasoenteric tube. Group B received the same azithromycin solution dose, administered directly into the ileocecal region of the small intestine via a nasoenteric tube. The nasoenteric tube was a single lumen, 4.5 meter tube with a side port for delivery of drug. Placement of the tube for duodenal and ileocecal delivery was confirmed by fluoroscopy. Infusions to the duodenum or ileocecal region were administered at a concentration of 40 mg/ml within 5 minutes. All subjects were dosed after an overnight fast. Subjects were randomized to receive azithromycin and placebo via nasoenteric tube and intravenous infusion in a double-blind, placebo controlled fashion.
Blood samples were withdrawn prior to dosing, and at 0.08, 0.17, 0.33, 0.66, 1, 2, 4, 8, 12, 24, 48, 72, and 96 hr post-dosing. Serum azithromycin concentrations were determined using the high performance liquid chromatography assay described in Shepard et al., J. Chromatography, 565: 321–337, (1991). Total systemic exposure to azithromycin was determined by measuring the area under the serum azithromycin concentration vs. time curve (AUC) for each subject in a given group, and then by calculating a mean AUC for the group. Cmax is the highest serum azithromycin concentration achieved in a subject. Tmax is the time at which Cmax is achieved. In one leg of this study, all subjects received an intravenous 2g azithromycin dose. The intravenous AUC was determined in order to calculate the absolute duodenal and ileocecal bioavailabilities, as described below.

[3] = Serum azithromycin pharmacokinetics after 2 g oral capsule dose, single vs divided (Example 1); type: in vivo; conditions: male, human, mean; for AUC(0-t): read-out: AUC0–144
Procedure: In a double-blind, randomized, placebo-controlled parallel group study, healthy male subjects were divided into three groups. Group A received a single 2 g azithromycin dose as eight 250 mg azithromycin capsules (“bolus dosing” group). Group B received the same total dose, administered as eight 250 mg capsules at the rate of one 250 mg capsule each 30 minutes for 3.5 hr (“divided dosing” group). Group C received matching placebo capsules. All subjects received eight capsules of drug or placebo at time 0, and a capsule of drug or placebo every half-hour for 3.5 hr. All subjects were dosed after an overnight fast. […] Tmax is the time at which Cmax is achieved.

[4] = Recovery of azithromycin in ileostomy fluid after IV infusion in ileostomy subjects; type: in vivo, human; conditions: 500 mg IV infusion over 1 hr, twelve ileostomy subjects, 24 hr following dose
Excerpt: A 2.0 g intravenous azithromycin dose is equivalent to a 5.4 g oral azithromycin dose, from the standpoint of equivalent systemic drug exposure. At an even higher intravenous dose, a higher side effect incidence is observed. While GI side effects can be elicited by high intravenous doses, these observations are consistent with the statement that azithromycin GI side effects are mediated by direct contact of the drug with the intestinal wall in the lumen, based upon the following additional study. Twelve ileostomy subjects were administered an IV infusion of 500 mg azithromycin over 1 hr. Serum was collected predose and at 0.17, 0.33, 0.5, 1, 2, 4, 8, 12, 24, 48, 72, 96, 120, and 144 hr following initiation, of the infusion. In addition, the contents of the subjects' ileostomy bags were collected for the following intervals: 12 hr predose, 0–6 hr post-dose, 6–12 hr post-dose, and 12–24 hr post-dose. The serum and ileostomy fluid concentrations of azithromycin were assayed. […] Thus it is not surprising that high intravenous doses of azithromycin can cause gastrointestinal side effects, since a portion of the IV dose partitions into the lumen of the small intestine.

[5] = 2 g directly into the ileocecal region
[6] = 2 g solution directly into the duodenum, n 5
[7] = 2 g solution directly into the ileocecal region, n 6
[8] = 250 mg capsule per half-hr for 3.5 hr (2 g total), oral, fasted
[9] = 2 g single oral dose as eight 250 mg capsules, fasted

CC[C@H]1OC(=O)[C@H](C)[C@@H](O[C@H]2C[C@@](C)(OC)[C@@H](O)[C@H](C)O2)[C@H](C)[C@@H](O[C@@H]2O[C@H](C)C[C@H](N(C)C)[C@H]2O)[C@](C)(O)C[C@@H](C)CN(C)[C@H](C)[C@@H](O)[C@]1(C)O [azithromycin, 9a-aza-9a-methyl-9-deoxo-9a-homoerythromycin A]
patients reporting gastrointestinal side effects ([1]; oral): 9.6% | incidence of abdominal pain [1]: 2.5% | incidence of diarrhea [1]: 3.6% | incidence of nausea [1]: 2.6% | Incidence of Visual-Analogue-Scale score >1, abdominal cramping ([2]; 2 g directly into the duodenum): 5/5 | Incidence of Visual-Analogue-Scale score >1, abdominal pain ([2]; 2 g directly into the duodenum): 4/5 | Incidence of Visual-Analogue-Scale score >1, nausea ([2]; 2 g directly into the duodenum): 2/5 | Incidence of Visual-Analogue-Scale score >1, regurgitation ([2]; 2 g directly into the duodenum): 3/5 | Incidence of Visual-Analogue-Scale score >4, abdominal cramping ([2]; 2 g directly into the duodenum): 0/5 | Incidence of Visual-Analogue-Scale score >4, abdominal pain ([2]; 2 g directly into the duodenum): 0/5 | Incidence of Visual-Analogue-Scale score >4, nausea ([2]; 2 g directly into the duodenum): 1/5 | Incidence of Visual-Analogue-Scale score >4, regurgitation ([2]; 2 g directly into the duodenum): 0/5 | Incidence of Visual-Analogue-Scale score >1, abdominal cramping [2, 5]: 2/6 | Incidence of Visual-Analogue-Scale score >1, abdominal pain [2, 5]: 2/6 | Incidence of Visual-Analogue-Scale score >1, nausea [2, 5]: 2/6 | Incidence of Visual-Analogue-Scale score >1, regurgitation [2, 5]: 0/6 | Incidence of Visual-Analogue-Scale score >4, abdominal cramping [2, 5]: 0/6 | Incidence of Visual-Analogue-Scale score >4, abdominal pain [2, 5]: 0/6 | Incidence of Visual-Analogue-Scale score >4, nausea [2, 5]: 0/6 | Incidence of Visual-Analogue-Scale score >4, regurgitation [2, 5]: 0/6 | Mean Cumulative Score (Visual Analogue Scale), abdominal cramping [2, 6]: 13.2 | Mean Cumulative Score (Visual Analogue Scale), abdominal pain [2, 6]: 13.4 | Mean Cumulative Score (Visual Analogue Scale), nausea [2, 6]: 11.6 | Mean Cumulative Score (Visual Analogue Scale), regurgitation [2, 6]: 7.2 | Mean Cumulative Score (Visual Analogue Scale), abdominal cramping [2, 7]: 3.3 | Mean Cumulative Score (Visual Analogue Scale), abdominal pain [2, 7]: 2.7 | Mean Cumulative Score (Visual Analogue Scale), nausea [2, 7]: 2.0 | Mean Cumulative Score (Visual Analogue Scale), regurgitation [2, 7]: 0 | AUC0–96 (clinical): 14.5 µg·h/mL | bioavailability (clinical): 39.1% | bioavailability for duodenal dosing (AUCduodenal/AUCIV×100) (clinical): 43.8% | overall systemic exposure (AUC) lower for ileocecal dosing compared with duodenal dosing (clinical): 15% | AUC(0-t) (clinical; AUC0–96): 17000 ng·h/mL | Cmax [3, 8]: 1130 ng/mL | Tmax [3, 8]: 4.4 h | AUC(0-t) [3, 8]: 18900 ng·h/mL | Cmax ([3]; 2 g single oral dose as eight 250 mg capsules, fasted healthy male subjects): 1690 ng/mL | Tmax [3, 9]: 1.3 h | AUC(0-t) [3, 9]: 18800 ng·h/mL | dose recovered intact in the ileostomy fluid [4]: 13%
